Legend:
[1] = system: murine fibroblasts cultured in mD-ECM; experiment: mD-ECM induced myofibroblastic activation of murine fibroblasts (stress fiber α-SMA); assay type: cell-based; conditions: wild type murine fibroblasts in mD-ECM (80% untreated)
Protocol: (§1) ECM prompted myofibroblastic maintenance. Human naïve or assorted murine fibroblasts were incubated for 45 minutes prior to overnight culturing within assorted ECMs, prepared as above, in the presence or absence of 50 μg/ml SNAKA51, 60 μg/m ALULA, 250 μg/m mAb16, or BMAS diluted as instructed by the manufacturer (Millipore, Temecula, Calif.), IgG control, DMSO or small molecule inhibitors FAK (PF573,228) and SRC family kinases (PP2). ECM-induced phenotypes were assessed via RT-qPCR, Western Blot or immunofluorescence.
FIGS. 3A through 3H show FAK independent α5β1 integrin activity negatively regulates D-ECM-induced desmoplastic activation. […]

[2] = system: naïve renal fibroblasts cultured within D-ECM; experiment: ECM prompted myofibroblastic maintenance (α-SMA / F-actin immunofluorescence), RCC model; assay type: cell-based, human; conditions: RCC; naïve fibroblasts plated in D-ECM in presence of the agent
Protocol: as §1
(§2) Naïve/innate PDAC and RCC patient harvested fibroblasts were cultured overnight within normal (N-ECM) vs. desmoplastic (D-ECM or DECMs that were produced in the presence or absence of TGFβ1-receptor inhibition (D+TGFβi) or vehicle control (D+DMSO). Alternatively, naïve cells cultured within D-ECMs were treated with either TGFβ1-receptor inhibitor (TGFβ-i), vehicle (DMSO), functional blocking antibodies anti-αvβ5 integrin (alula, αvβ5-i), anti-α5β1 integrin (mAb16, α5β1-i), combinations of both functional blocking antibodies (β5-i+α5-i), functional stabilizing anti α5β1 integrin (SNAKA51; α5β1-act) or non-immunized isotypic antibodies (IgG). All samples were subjected to indirect immunofluorescent labeling of desmoplastic marker α-SMA and counterstained with fluorescently labeled phalloidin to detect actin stress fibers (F-actin) and determine the co-localization ratio. Monochromatic “heat map” images (see, FIG. 2A) represent α-SMA intensity values. A 255 tones intensity scale bar is shown to the right. A summary of all measured values is graphed in FIG. 2B. Additional monochromatic images indicative of double labeled staining for α-SMA and F-actin are in FIG. 2C while levels of total α-SMA localized at corresponding stress fibers are plotted in FIG. 2D. Untreated D-ECM conditions were included in all experiments summarized in this figure and serve as normalization (1 arbitrary unit; a.u.) controls. Matching values including statistical significances are listed in accompanying Table 1. All scale bars represent 50 μm. TGFβ activity was needed to maintain functional D-ECM production but was dispensable when testing D-ECM induced responses, while the later were obstructed by αvβ5 integrin inhibition or active α5β1 integrin stabilization.

[3] = system: naïve pancreatic fibroblasts cultured within D-ECM; experiment: ECM prompted myofibroblastic maintenance (α-SMA / F-actin immunofluorescence), PDAC model; assay type: cell-based, human; conditions: PDAC; naïve fibroblasts plated in D-ECM in presence of the agent
Protocol: as §1, §2

SMILES: CS(=O)(=O)c1cccc(CNc2nc(Nc3ccc4c(c3)CCC(=O)N4)ncc2C(F)(F)F)c1 [PF573,228]
- cells undergoing myofibroblastic activation [1]: 32%
- α-SMA expression levels relative to untreated conditions [2]: 70%
- α-SMA stress fiber localization levels [2]: 25%
- α-SMA expression levels relative to untreated conditions [3]: 17%
- α-SMA stress fiber localization levels [3]: 23.5%

— US20230152325A1, “Active Alpha-5-Beta-1 Integrin As A Biomarker For Enhancing Tumor Treatment Efficacy” (Institute For Cancer Research d/b/a The Research Institute …, priority 2016, published 2023)
